24 compounds from patent US9932300B2, “N,N′-diarylurea compounds and N,N′-diarylthiourea compounds as inhibitors of translation initiation” (President and Fellows of Harvard College, priority 2009, dated 2018) can be followed below.

This assay concerns eIF2-GTP-Met-tRNAi ternary complex. Briefly: Ternary complex assay (dual luciferase, firefly/renilla ratio) in stable KLN-tTA/pBISA-DL(ATF-4) cells; HTS and hit confirmation. It is filed as cell-based, mouse. Also noted: Activity 10 uM / Activity 2.5 uM / Activity 5 uM: unit not given here. The following applies: for Activity 2.5 uM: compound at 2.5 uM; for Activity 2.5 uM / Activity 10 uM: confirmed hits of the screen (Table 5); for Activity 10 uM: compound at 10 uM. An excerpt:
For assay development, a bi-directional plasmid was designed in which a common promoter/enhancer complex drives the transcription of firefly luciferase (F-luc) ORF fused to the 5′ untranslated region (UTR) of ATF-4, and of the renilla luciferase (R-luc) ORF fused to a 90-nucleotide 5′ UTR derived from the plasmid (FIG. 6A). Because the tetracycline-regulated transactivator ((tTA), required for driving transcription from this vector) is not normally expressed in the mammalian cells, stable KLN cancer cells were constructed that expressed tTA (KLN-tTA).
The KLN-tTA colonies that drove expression of reporter genes from pBISA-DL plasmid were selected by transient transfection and dual luciferase assay. One of these KLN-tTA cell lines was transfected with the pBISA-DL^(ATF-4) expression vector, stable colonies were selected by dual luciferase assay and expanded. To determine if reduced availability of the eIF2*GTP*Met-tRNAi ternary complex increased the translation of firefly luciferase and decreased translation of renilla luciferase, selected KLN-tTA/pBISA-DL^(AFT-4) colonies were treated with thapsigargin (TG) or tunicamycin (TU), two agents known to cause phosphorylation of eIF2α.
This assay was then adapted for high throughput screening in 96 and 384 well plates. This was done by evaluating the cell density, length of exposure to compounds, DMSO tolerance and optimum firefly and renilla substrate. We then challenged these cells with thapsigargin or DMSO. […] Cell-based assays usually have higher variation than homogeneous in vitro assays due to position effect in the plate, and other variables associated with handling of cells and the plates.
Screening was conducted in 384 well white opaque plates (Nalge Nunc), 100 μl volume RPMI+10% fetal bovine serum. Cells were plated at the sub-confluent density of 10,000 cells/well, and allowed to attach for a period of 16-18 hours at 37° C., 5% CO2. Compounds were added as 1 μl of a 1 mM DMSO stock solution for a final screening concentration of 10 μM, using low-volume tips for transfer (Molecular Bioproducts). Cells were then incubated in the presence of compound for an additional sixteen hours, again at 37° C., 5% CO2. Following incubation 70 μl of the culture medium was removed from each well to allow for reagent addition and plates were allowed to equilibrate to room temperature for thirty minutes. Firefly luciferase reporter activity was then read by the addition of thirty microliters of Dual Glo Luciferase reagent (Promega), followed by one hour incubation at room temperature to allow for adequate signal buildup. Luminescence counting was conducted on a Microbeta Trilux using a 1 second read time. Renilla luciferase reporter activity was measured following addition of 30 μl Stop and Glo Luciferase reagent (Promega) and incubation identical to the one carried out for the firefly luciferase one.
Compound scores were interpreted as firefly luciferase activity divided by renilla luciferase activity, normalized to the plate's DMSO control. […] All data analysis was conducted using the BioAssay HTS software package (CambridgeSoft).
102,709 compounds in the NCI Open Chemical Repository were then screened using this HTS assay. […] Initial hits were confirmed by repeating the same dual luciferase assay in 96 well plates. Briefly, 20,000 cells/well were plated in triplicate for each concentration (10, 5 and 2.5 μM) of the compounds.

“And” between values parts separate entries of the source, which are not always exact repeats. Equal values may be shown once.

In the case of `CCN(CC)C(=S)[S-].CCN(CC)C(=S)[S-].[Cu+2]` [Compound 1337], the “Activity 2.5 uM” value came to 7.15.
As for `Cc1nc(Nc2cccc(Cl)c2)c2cnn(-c3ccc(Cl)cc3)c2n1` [Compound 1626], the “Activity 2.5 uM” value is 0.79 and the “Activity 10 uM” value is reported as 5.31.
`O=C(Nc1ccc(Cl)c(C(F)(F)F)c1)Nc1ccc2nnsc2c1` [Compound 1780]: the “Active or inactive N,N′-diarylurea (ternary complex assay)” value (designation in figure legend) was “active”.
On to `c1ccc(NNc2ccc3ccccc3n2)cc1` [Compound 1874], for which the “Activity 2.5 uM” value is listed as 4.27 and the “Activity 10 uM” value is recorded as 3.99.
`O=C(CCl)Nc1cc(Cl)ccc1Cl` [Compound 8275]: the “Activity 2.5 uM” value came to 0.81.
`Cc1ccc2c(c1)sc(-c1ccc(N(C)C)cc1)[n+]2C.[Cl-]` [Compound 11235]: the “Activity 2.5 uM” value was 4.88 and 7.3.
As to `CCCCCCCC[N+](CCCC)(CCCC)CCCC.O=C([O-])CCl` [Compound 12134], the “Activity 2.5 uM” value was found to be 8.83.
As to `CCOC(=O)N(C(=O)c1ccc([As]=O)cc1)C(=O)c1ccc([As]=O)cc1` (centres unmarked) [Compound 12750], the “Activity 2.5 uM” value worked out at 1.79 and the “Activity 10 uM” value came out at 4.9.
The like results for `CCN(CC)CCCC(C)n1c(SC)nc2cc(Cl)ccc21` (centres unmarked) [Compound 13268] were, in that order, 1.46 and 3.18.
For `CCCCCCCCC(N)CCCCCCCC.Cl` [Compound 14209], the “Activity 2.5 uM” value worked out at 0.85 and the “Activity 10 uM” value stood at 14.32.
Take `Cc1cc(/C=C/C2CCC3CC(C)CCC3N2CCO)c(C)n1-c1ccccc1` (centres unmarked) [Compound 14238]: the “Activity 2.5 uM” value is listed as 1.37 and the “Activity 10 uM” value turned out to be 3.02.
Regarding `CC(=O)NC1=CC(=O)C=CC1=Nc1ccc(N(C)C)cc1C` [Compound 14739], the “Activity 2.5 uM” value is 1.12 and the “Activity 10 uM” value is reported as 4.06.
In the case of `Cc1c(Cl)ccc2c(C(O)CNCc3ccccc3)cc(-c3ccc(Cl)cc3)nc12` (centres unmarked) [Compound 14755], the “Activity 2.5 uM” value is reported as 0.68 and the “Activity 10 uM” value came to 6.63.
`CC(C)Nc1nc(NC(C)C)c2cnn(-c3ccccc3)c2n1` [Compound 19143]: the “Activity 2.5 uM” value is recorded as 1.72 and the “Activity 10 uM” value is listed as 3.2.
For the compound `CCCCCCCCCCCCCCCCCC[n+]1ccc(C(C)CC)cc1.[Cl-]` (centres unmarked) [Compound 19763], the “Activity 2.5 uM” value is on record as 4.63 and the “Activity 10 uM” value is 13.29.
Consider `CCO[C@@H]([CH2][Hg][Cl])[C@](C)([CH2][Hg][Cl])OCC` [Compound 21293], for which the “Activity 2.5 uM” value is recorded as 3.16.
On to `CN(C)c1ccc(C2(Cl)c3ccccc3N(Cc3ccccc3)c3ccccc32)cc1.Cl` [Compound 21533], for which the “Activity 2.5 uM” value worked out at 2.03 and the “Activity 10 uM” value was determined as 8.88.
On to `O=C(C=Cc1ccc([N+](=O)[O-])o1)C=Cc1ccc([N+](=O)[O-])o1` [Compound 21620], for which the “Activity 2.5 uM” value was 0.74 and the “Activity 10 uM” value is recorded as 16.28.
Take `c1ccc(-c2ccc(-c3cnc(-c4ccc(-c5ccccc5)cc4)o3)cc2)cc1` [Compound 24863]: the “Activity 2.5 uM” value stood at 1.87 and the “Activity 10 uM” value is given as 3.22.
Consider `CCCCN(CCCC)CCC(O)(c1ccc(OC)c2ccccc12)C(O)(CCN(CCCC)CCCC)c1ccc(OC)c2ccccc12.Cl` (centres unmarked) [Compound 26101], for which the “Activity 2.5 uM” value is 0.78 and the “Activity 10 uM” value was 4.13.
With `Br.CCC1=C(C)/C(=C/c2[nH]c(C)c(CC)c2C)N=C1C` [Compound 26672], the “Activity 2.5 uM” value is listed as 1.44 and the “Activity 10 uM” value came out at 57.61.
For the compound `CCCCCCCCCCCCCCCC[N+](C)(C)CCCCCC(=O)OC.[Br-]` [Compound 26847], the “Activity 2.5 uM” value was 1.83 and the “Activity 10 uM” value is given as 8.15.
Consider `O=C1C=C(N2CC2)C(=O)C(N2CC2)=C1N1CC1` [Compound 29215], for which the “Activity 2.5 uM” value is reported as 36.4.
As to `Clc1ccc(-c2nc(-c3ccccc3)[nH]c2-c2ccc(Cl)c(Cl)c2)cc1Cl` [Compound 30759], the “Activity 2.5 uM” value turned out to be 0.88 and the “Activity 10 uM” value was 6.9.
